In ChEMBL document CHEMBL3779803, “α-Glucosidase Inhibitory Prenylated Anthranols from Harungana madagascariensis” (J Nat Prod, 2016):

System: Saccharomyces cerevisiae
Assay: Inhibition of Saccharomyces cerevisiae alpha-glucosidase at 5 uM using p-nitrophenyl-alpha-D-glucoside as substrate measured for 40 mins by spectrophotometric analysis
CC(C)=CCc1c(C)cc2cc3c(c(O)c2c1O)C(=O)C=C(O)C3(CC=C(C)C)CC=C(C)C gave an inhibition of 47%.

Biological target: not listed separately
Assay: Inhibition of Saccharomyces cerevisiae alpha-glucosidase using p-nitrophenyl-alpha-D-glucoside as substrate measured for 40 mins by spectrophotometric analysis
CC(C)=CCc1c(C)cc(O)c2c1[C@@H](O)c1c3c(cc(O)c1C2=O)OC(C)(C)[C@@H](O)C3 showed an IC50 of 36.9 µM. With CC(C)=CCc1c(C)cc(O)c2c1[C@@H](O)c1c3c(cc(O)c1C2=O)O[C@@H](C(C)(C)O)C3 the IC50 was 207 µM. Compound Cc1cc(O)c2c3c1[C@H](O)[C@@H]1O[C@]3(OC1(C)C)c1c3c(cc(O)c1C2=O)O[C@@H](C(C)(C)O)C3 has an IC50 of 117 µM. Compound C[C@@H]1O[C@@H](O[C@@H]2[C@@H](O)[C@H](O)[C@H](O[C@H]3[C@H](O)[C@@H](O)C(O)O[C@@H]3CO)O[C@H]2CO)[C@@H](O)[C@H](O)[C@H]1N[C@H]1C=C(CO)[C@@H](O)[C@H](O)[C@H]1O (stereo partly drawn) has an IC50 of 120 µM. CC(C)=CCc1c(C)cc(O)c2c(O)c3c(cc12)C(CC=C(C)C)(CC=C(C)C)C(O)=CC3=O [HARUNGANIN] showed an IC50 of 37.7 µM. CC(C)=CCc1c(C)cc(O)c2c1C(O)c1c(CC=C(C)C)c(O)cc(O)c1C2=O (stereo not drawn) showed an IC50 of 44.1 µM. Compound CC(C)=CCc1c(C)cc2cc3c(c(O)c2c1O)C(=O)C(CC1=C(O)C(CC=C(C)C)(CC=C(C)C)c2cc4cc(C)c(CC=C(C)C)c(O)c4c(O)c2C1=O)=C(O)C3(CC=C(C)C)CC=C(C)C has an IC50 of 1.2 µM.
